Reference: ChEMBL document CHEMBL1212828, “Synthesis and biological evaluation of novel pyrazole compounds” (Bioorg Med Chem, 2010)
Active and inactive are the calls of the source. The rule behind the calls is not given here.

Test system: THP-1
Assay: Antiinflammatory activity in human THP1 cells assessed as reduction in LPS and IFN-gamma-induced level at 500 uM after 24 hrs

N#Cc1cnn(-c2ccccc2)c1NC(=O)C(=O)Nc1c(C#N)cnn1-c1ccccc1
Activity: Active
